pIC50: −log10 of the molar value.
Columns and labels:
Acinetobacter baumannii = experiment: Antibacterial activity against Acinetobacter baumannii ATCC 19606 assessed as bacterial growth inhibition at 50 uM incubated for 24 hrs by CLSI protocol based broth microdilution assay relative to control; format: functional; settings: ATCC 19606 = CIP 70.34 = JCM 6841
Escherichia coli [1] = experiment: Antibacterial activity against outer membrane impaired Escherichia coli JD17464 harboring lpxC mutant assessed as bacterial growth inhibition at 50 uM incubated for 24 hrs by CLSI protocol based broth microdilution assay relative to control; format: functional
Staphylococcus aureus = experiment: Antibacterial activity against Staphylococcus aureus ATCC 29213 assessed as bacterial growth inhibition at 50 uM incubated for 24 hrs by CLSI protocol based broth microdilution assay relative to control; format: functional
Klebsiella pneumoniae = experiment: Antibacterial activity against Klebsiella pneumoniae ATCC 700603 assessed as bacterial growth inhibition at 50 uM incubated for 24 hrs by CLSI protocol based broth microdilution assay relative to control; format: functional
Pseudomonas aeruginosa = experiment: Antibacterial activity against Pseudomonas aeruginosa ATCC 27853 assessed as bacterial growth inhibition at 50 uM incubated for 24 hrs by CLSI protocol based broth microdilution assay relative to control; format: functional
Escherichia coli [2] = experiment: Antibacterial activity against Escherichia coli ATCC 25922 assessed as bacterial growth inhibition at 50 uM incubated for 24 hrs by CLSI protocol based broth microdilution assay relative to control; format: functional
Enterococcus faecium = experiment: Antibacterial activity against Enterococcus faecium ATCC 35667 assessed as bacterial growth inhibition at 50 uM incubated for 24 hrs by CLSI protocol based broth microdilution assay relative to control; format: functional
DNA gyrase = DNA gyrase (Escherichia coli, UniProt P0AES4+P0AES6); experiment: Inhibition of Escherichia coli DNA gyrase using biotinylated oligonucleotide as substrate incubated for 30 mins in presence of ATP by fluorescence-based microplate reader assay; format: protein-complex assay
Enterococcus faecalis = experiment: Antibacterial activity against Enterococcus faecalis ATCC 29212 assessed as bacterial growth inhibition at 50 uM incubated for 24 hrs by CLSI protocol based broth microdilution assay relative to control; format: functional
Escherichia coli [3] = experiment: Antibacterial activity against efflux pump d effect ive Escherichia coli JW5503 harbouring tolC mutant assessed as bacterial growth inhibition at 50 uM incubated for 24 hrs by CLSI protocol based broth microdilution assay relative to control; format: functional
Klebsiella aerogenes = experiment: Antibacterial activity against Enterobacter aerogenes ATCC 13408 assessed as bacterial growth inhibition at 50 uM incubated for 24 hrs by CLSI protocol based broth microdilution assay relative to control; format: functional
[4] = target: DNA gyrase (Escherichia coli) (UniProt P0AES6+P0AES4); experiment: Inhibition of Escherichia coli DNA gyrase assessed as residual activity at 1 uM using biotinylated oligonucleotide as substrate incubated for 30 mins in presence of ATP by fluorescence-based microplate reader assay relative to control; format: protein-complex assay
[5] = target: DNA gyrase (Staphylococcus aureus) (UniProt P0A0K8+P20831); experiment: Inhibition of Staphylococcus aureus DNA gyrase assessed as residual activity at 1 uM using biotinylated oligonucleotide as substrate incubated for 30 mins in presence of ATP by fluorescence-based microplate reader assay relative to control; format: protein-complex assay
[6] = target: Topoisomerase IV (Staphylococcus aureus) (UniProt P0C1U9+P0C1S7); experiment: Inhibition of Staphylococcus aureus DNA topoisomerase 4 assessed as residual activity at 1 uM using biotinylated oligonucleotide as substrate incubated for 30 mins in presence of ATP by fluorescence-based microplate reader assay relative to control; format: protein-complex assay
[7] = Inhibition of Escherichia coli DNA topoisomerase 4 assessed as residual activity at 1 uM using biotinylated oligonucleotide as substrate incubated for 30 mins in presence of ATP by fluorescence-based microplate reader assay relative to control

DNA gyrase (Staphylococcus aureus), sequence (P0A0K8 2-644 limits assumed): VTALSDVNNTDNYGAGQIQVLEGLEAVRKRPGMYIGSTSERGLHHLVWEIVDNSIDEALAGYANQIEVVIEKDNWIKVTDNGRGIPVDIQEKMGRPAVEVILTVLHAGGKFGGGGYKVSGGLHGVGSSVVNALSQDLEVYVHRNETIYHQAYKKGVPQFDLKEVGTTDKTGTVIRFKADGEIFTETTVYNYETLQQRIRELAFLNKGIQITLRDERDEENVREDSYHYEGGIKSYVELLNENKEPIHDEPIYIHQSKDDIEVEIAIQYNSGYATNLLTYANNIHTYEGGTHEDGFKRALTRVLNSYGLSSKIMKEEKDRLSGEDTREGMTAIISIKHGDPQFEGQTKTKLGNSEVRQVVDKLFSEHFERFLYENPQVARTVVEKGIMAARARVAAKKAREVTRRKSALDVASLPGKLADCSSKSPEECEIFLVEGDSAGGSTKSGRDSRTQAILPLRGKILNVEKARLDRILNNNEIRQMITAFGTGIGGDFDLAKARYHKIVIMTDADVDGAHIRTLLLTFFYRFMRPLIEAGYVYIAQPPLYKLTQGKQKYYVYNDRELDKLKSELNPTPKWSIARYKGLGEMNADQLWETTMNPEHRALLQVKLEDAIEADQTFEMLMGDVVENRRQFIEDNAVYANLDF
DNA gyrase (Staphylococcus aureus), sequence (P20831 whole entry partner): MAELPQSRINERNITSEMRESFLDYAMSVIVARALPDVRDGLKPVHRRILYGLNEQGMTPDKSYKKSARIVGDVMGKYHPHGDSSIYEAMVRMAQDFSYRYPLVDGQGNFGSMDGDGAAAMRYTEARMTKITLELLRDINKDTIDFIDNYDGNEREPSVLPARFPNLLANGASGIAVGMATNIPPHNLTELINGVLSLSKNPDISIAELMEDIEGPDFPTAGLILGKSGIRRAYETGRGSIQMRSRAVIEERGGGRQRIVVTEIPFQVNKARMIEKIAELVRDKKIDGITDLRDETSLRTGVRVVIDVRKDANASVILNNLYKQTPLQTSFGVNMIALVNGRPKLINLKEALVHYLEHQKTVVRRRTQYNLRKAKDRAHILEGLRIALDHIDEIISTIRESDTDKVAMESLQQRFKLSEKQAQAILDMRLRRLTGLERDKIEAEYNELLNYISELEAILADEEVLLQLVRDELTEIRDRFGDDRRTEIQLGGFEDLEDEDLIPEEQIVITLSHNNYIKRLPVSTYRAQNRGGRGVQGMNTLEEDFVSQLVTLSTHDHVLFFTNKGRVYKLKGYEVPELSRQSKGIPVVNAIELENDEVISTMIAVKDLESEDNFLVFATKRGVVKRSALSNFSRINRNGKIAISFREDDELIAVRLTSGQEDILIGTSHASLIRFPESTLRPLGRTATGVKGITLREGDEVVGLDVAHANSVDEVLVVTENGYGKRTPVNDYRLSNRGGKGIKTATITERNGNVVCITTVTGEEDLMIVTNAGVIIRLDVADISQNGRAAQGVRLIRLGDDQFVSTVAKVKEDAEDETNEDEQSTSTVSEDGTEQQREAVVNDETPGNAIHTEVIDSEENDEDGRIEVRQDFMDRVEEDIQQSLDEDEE

Row | Structure (SMILES) | inhibition at 50 µM (Acinetobacter baumannii) | inhibition at 50 µM (Escherichia coli [1]) | inhibition at 50 µM (Staphylococcus aureus) | inhibition at 50 µM (Klebsiella pneumoniae) | inhibition at 50 µM (Pseudomonas aeruginosa) | inhibition at 50 µM (Escherichia coli [2]) | inhibition at 50 µM (Enterococcus faecium) | pIC50 (DNA gyrase) | inhibition at 50 µM (Enterococcus faecalis) | inhibition at 50 µM (Escherichia coli [3]) | inhibition at 50 µM (Klebsiella aerogenes) | Activity [4] | Activity [5] | Activity [6] | Activity [7]
1 | N#CCNC(=O)c1ccc(NC(=O)c2cc(Br)c(Br)[nH]2)cc1 | 2% | -5% | -5% | 5% | 11% | 2% | 2% | 6.02 | 7% | -9% | 7% | – | – | – | –
2 | Cc1[nH]c(C(=O)Nc2ccc(S(N)(=O)=O)cc2)c(Cl)c1Cl | 6% | 4% | 12% | 4% | -4% | 13% | 54% | – | 6% | 2% | 1% | 82% | – | – | –
3 | Cc1[nH]c(C(=O)Nc2ccc(C(=O)NCC(=O)O)cc2O[C@H]2CCN(C(=O)OC(C)(C)C)C2)c(Cl)c1Cl | 1% | -2% | -1% | 9% | 14% | 5% | 9% | 7.04 | – | 2% | 6% | – | – | – | –
4 | Cc1[nH]c(C(=O)Nc2ccc(C(=O)N[C@H](C)C(=O)O)cc2OC2CCN(C(=O)OC(C)(C)C)CC2)c(Cl)c1Cl | 15% | 10% | -22% | -13% | -10% | -7% | 59% | 7.15 | – | -8% | -5% | – | 68% | 79% | 99%
5 | COC(=O)CNC(=O)c1ccc(NC(=O)c2[nH]c(C)c(Cl)c2Cl)c(OC2CCN(C(=O)OC(C)(C)C)CC2)c1 | 15% | 31% | 8% | -2% | -18% | 26% | -19% | – | – | 7% | 5% | 100% | – | – | –
6 | COC(=O)CNC(=O)c1ccc(NC(=O)c2cc(Br)c(Br)[nH]2)c(OC2CCN(C(=O)OC(C)(C)C)CC2)c1 | -4% | 1% | -17% | -12% | -1% | -8% | -75% | – | – | -4% | -9% | 100% | – | – | –
7 | COC(=O)[C@@H](C)NC(=O)c1ccc(NC(=O)c2[nH]c(C)c(Cl)c2Cl)c(OC(C)C)c1 | 8% | 27% | 29% | 16% | 5% | 12% | -15% | – | -41% | 11% | 12% | 87% | – | – | –
8 | Cc1[nH]c(C(=O)Nc2ccc(S(=O)(=O)Nc3nccs3)cc2)c(Cl)c1Cl | 10% | 17% | -2% | 1% | 10% | 13% | 43% | – | 23% | 5% | -2% | 100% | – | – | –
9 | CCOC(=O)c1cc2cc(NC(=O)c3[nH]c(C)c(Cl)c3Cl)ccc2[nH]1 | – | – | – | – | – | – | – | – | – | – | – | 100% | – | – | –
10 | Cc1[nH]c(C(=O)Nc2ccc(C(=O)NS(C)(=O)=O)cc2)c(Cl)c1Cl | 6% | 4% | 5% | -2% | 3% | 15% | -3% | 6.80 | 16% | 73% | -8% | – | 55% | 81% | 98%
11 | CCOC(=O)C(NC(=O)c1ccc(NC(=O)c2cc(Br)c(Br)[nH]2)cc1)C(=O)OCC | 3% | 2% | 12% | 1% | 5% | 9% | -8% | – | 8% | -8% | 1% | 78% | – | – | –
12 | CCOC(=O)C(NC(=O)c1ccc(NC(=O)c2[nH]c(C)c(Cl)c2Cl)cc1)C(=O)OCC | 9% | 8% | 32% | 18% | -6% | 13% | 11% | 5.11 | 14% | 8% | 11% | – | – | – | –
13 | CC(C)(C)OC(=O)N1CCC(Oc2cc(C(=O)NCC(=O)O)ccc2NC(=O)c2cc(Br)c(Br)[nH]2)CC1 | -4% | -6% | -18% | 9% | 6% | -14% | -76% | 6.20 | – | -4% | -14% | – | – | – | –
14 | Cc1[nH]c(C(=O)Nc2ccc(S(=O)(=O)NCC(=O)O)cc2)c(Cl)c1Cl | 5% | 1% | 4% | 7% | -4% | 7% | 3% | – | 9% | 6% | 7% | 87% | – | – | –
15 | COC(=O)CNC(=O)c1ccc(NC(=O)c2[nH]c(C)c(Cl)c2Cl)c(O[C@H]2CCN(C(=O)OC(C)(C)C)C2)c1 | 9% | 30% | 12% | 8% | 12% | 10% | 23% | – | – | -4% | 7% | 93% | – | – | –
16 | COC(=O)[C@@H](C)NC(=O)c1ccc(NC(=O)c2[nH]c(C)c(Cl)c2Cl)c(OC2CCN(C(=O)OC(C)(C)C)CC2)c1 | 36% | 44% | 30% | 2% | 33% | 18% | 52% | – | – | 40% | 22% | 94% | – | – | –
17 | COC(=O)CNS(=O)(=O)c1ccc(NC(=O)c2[nH]c(C)c(Cl)c2Cl)cc1 | 9% | 4% | 12% | 1% | 5% | 18% | 34% | – | 8% | -1% | -4% | 87% | – | – | –
18 | O=C(O)CNC(=O)c1ccc(NC(=O)c2cc(Br)c(Br)[nH]2)c(OC2CCNCC2)c1 | 1% | 5% | 3% | 4% | 2% | -9% | 2% | 7.70 | – | -17% | 3% | – | 67% | 100% | 100%

Reference: ChEMBL document CHEMBL4665629, “An optimised series of substituted N-phenylpyrrolamides as DNA gyrase B inhibitors” (Eur J Med Chem, 2019)
